The text below walks through data of BindingDB's records for doi:10.1021/jm00153a007 (1986).

Each structure is given as a SMILES string.

The test deals with Prostacyclin synthase (Sus scrofa). The experiment in a line: Inhibition of PGI-2 synthetase from porcine aorta.
For orientation: IC50 means the concentration needed to halve the response being measured. The low end stands for greater potency in that assay, the high end for weaker potency in that assay. As for `O=C(O)CCn1cc(Cn2ccnc2)c2cc(Cl)ccc21` [3-(5-Chloro-3-imidazol-1-ylmethyl-indol-1-yl)-propionic acid], the IC50 was over 100 µM.

`CN(C)c1ccc2c(c1)c(Cn1ccnc1)cn2CCC(=O)O` [3-(5-Dimethylamino-3-imidazol-1-ylmethyl-indol-1-yl)-propionic acid] displayed an IC50 of over 100 µM. In the case of `O=C(O)CCn1cc(Cn2ccnc2)c2cc(Br)ccc21` [3-(5-Bromo-3-imidazol-1-ylmethyl-indol-1-yl)-propionic acid] it was over 100 µM. With `CC(C)c1c(Cn2ccnc2)c2ccccc2n1CCC(=O)O` [3-(3-Imidazol-1-ylmethyl-2-isopropyl-indol-1-yl)-propionic acid] the figure was over 100 µM; with `Cc1c(Cn2ccnc2)c2ccccc2n1/C=C/C(=O)O` [3-(3-Imidazol-1-ylmethyl-2-methyl-indol-1-yl)-acrylic acid], over 100 µM. In the case of `O=C(O)CCn1cc(Cn2ccnc2)c2ccc(C(F)(F)F)cc21` [3-(3-Imidazol-1-ylmethyl-6-trifluoromethyl-indol-1-yl)-propionic acid] it was over 100 µM.
